Patent publication US4439606A, “Antiatherosclerotic 1-piperazinecarbonyl compounds” (American Cyanamid Company, priority 1982, dated 1984)

Columns and labels:
[1] = target: T1, fatty acyl CoA:-cholesterol acyl transferase (ACAT) (Rattus norvegicus, UniProt O70536); assay: Inhibition of enzymatic esterification of cholesterol (ACAT inhibition), rat adrenal supernatant; type: biochemical; conditions: final concentration 5.2 μg./ml., 37° C., 30 minutes
T1 construct: The supernatant, containing the microsomal fraction, served as the source of the cholesterol-esterifying enzyme; from tissue; host or cells: rat adrenals, 1000 x g supernatant containing the microsomal fraction
T1 sequence (O70536 1-545): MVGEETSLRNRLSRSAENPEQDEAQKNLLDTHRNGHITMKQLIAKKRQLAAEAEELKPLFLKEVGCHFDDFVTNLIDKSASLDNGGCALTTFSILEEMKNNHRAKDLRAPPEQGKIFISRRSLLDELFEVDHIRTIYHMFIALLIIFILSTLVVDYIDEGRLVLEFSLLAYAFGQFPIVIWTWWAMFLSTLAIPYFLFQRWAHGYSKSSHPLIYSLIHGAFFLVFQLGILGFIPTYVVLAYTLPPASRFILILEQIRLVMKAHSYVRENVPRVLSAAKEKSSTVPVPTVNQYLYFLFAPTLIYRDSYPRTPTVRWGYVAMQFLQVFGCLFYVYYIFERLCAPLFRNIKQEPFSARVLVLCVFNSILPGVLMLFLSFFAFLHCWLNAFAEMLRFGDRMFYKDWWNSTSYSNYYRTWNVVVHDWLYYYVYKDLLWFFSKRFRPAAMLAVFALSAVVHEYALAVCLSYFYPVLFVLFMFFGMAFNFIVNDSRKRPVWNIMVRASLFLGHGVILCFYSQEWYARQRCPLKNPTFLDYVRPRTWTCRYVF
Description: The compounds of the present invention were tested for their ability to inhibit the enzymatic esterification of cholesterol according to the procedure of Hashimoto, et al., Life Sci., 12(Part II), 1-12 (1973).
Rat adrenals were homogenized in 0.2 M monobasic potassium phosphate buffer, pH 7.4, and centrifuged at 1000 times gravity for 15 minutes at 5° C. The supernatant, containing the microsomal fraction, served as the source of the cholesterol-esterifying enzyme, fatty acyl CoA:-cholesterol acyl transferase (ACAT). A mixture comprising 50 parts of adrenal supernatant, 10 parts of bovine serum albumin (50 mg./ml.), 3 parts of test compound (final concentration 5.2 μg./ml.) and 500 parts of buffer were preincubated at 37° C. for 10 minutes, following which 20 parts of oleoyl […] were added and the final mixture was incubated at 37° C. for 30 minutes. A control mixture, omitting the test compound, was prepared and treated in the same manner. The lipids from the incubation mixture were extracted into an organic solvent and separated by thin-layer chromatography. The cholesterol ester fraction was counted in a scintillation counter. A statistically significant inhibition of the ACAT enzyme is the criterion for activity.

aortic sterol content = assay: Decrease of aortic sterol content without effecting serum sterol in cholesterol-fed cockerels; type: in vivo, Day-old Cockerels; parameters: key: Active: Compounds which statistically decrease the aortic sterol content without having an effect on serum sterol are considered to be active; conditions: 525 mg. test compound and 20 g. cholesterol per kg. of diet, 14 days
Description: The compounds were further tested for their ability to decrease aortic sterol content without effecting serum sterol.
Day-old Cockerels were placed on diets consisting of pullet starter mash supplemented with either 20 g. cholesterol (control group) or 20 g. cholesterol and 525 mg. test compound (drug-treated group) per kg. of diet.
For the control diet, 20 g. of cholesterol was dissolved in 200 ml. of chloroform, mixed into one kg. of pullet starter mash and then the choloroform was removed by evaporation.
For the drug-treatment group, 525 mg. of the test compound was dissolved in 100 ml. of chloroform, mixed into a diet prepared as described above and then the chloroform was evaporated.
The cockerels were housed three per cage and given water and their respective diet ad libitum for 14 days. Blood was collected by cardiac puncture and the serum was saponified [Trinder, P., Analyst, 77, 321 (1952)] and extracted and the cholesterol content determinted [Zlatkis, A., et al., J. Lab Clin Med., 41 486 (1953)]. The aortae were removed, cleaned of adventitial tissue and the sterol content determined according to the above procedures. Compounds which statistically decrease the aortic sterol content without having an effect on serum sterol are considered to be active.

Row | Compound | inhibition at 5.2 µg/mL [1] [%] | Result (decrease of aortic sterol content without effect on serum sterol) (aortic sterol content)
1 | O=C(Cc1ccc(Cl)c(Cl)c1)N1CCN(c2cnccn2)CC1 [1-(3,4-Dichlorophenylacetyl)-4-(2-pyrazinyl)piperazine] | 38.3 | Active
2 | O=C(Cc1ccc([N+](=O)[O-])cc1)N1CCN(c2cnccn2)CC1 [1-(p-Nitrophenylacetyl)-4-(2-pyrazinyl)piperazine] | 36.4 | Active
3 | O=C(Cc1ccccc1)N1CCN(c2ccccc2)CC1 [1-phenyl-4-phenylacetylpiperazine, 1-Phenyl-4-phenylacetylpiperazine] | 34.6 | Active
